From ChEMBL document CHEMBL3880390, “Agents for preventing and treating disorders involving modulation of the RYR receptors” (2014)
pEC50: −log10 of the molar value. The source made the active and inactive calls. The rule behind the calls is not given here.

How the values were obtained:
Ryanodine receptor 2 [1] = molecular target: T1, Ryanodine receptor 2 (Homo sapiens, UniProt Q92736); assay: Induction of FKBP12.6 re-binding to PKA-phosphorylated-RyR2 (unknown origin) after 30 mins in presence of [35S]-FKBP12.6 by liquid scintillation counting
hERG (KCNH2) [2] = molecular target: T2, hERG (KCNH2) (Homo sapiens, UniProt Q12809); assay: Inhibition of human ERG expressed in HEK293 cells at 1 uM after 5 mins at -80 mV holding potential by patch clamp assay; format: cell-based; conditions: HEK293 cells expressing human ERG
hERG (KCNH2) [3] = molecular target: T2, hERG (KCNH2); assay: Inhibition of human ERG expressed in HEK293 cells at 10 uM after 5 mins at -80 mV holding potential by patch clamp assay; format: cell-based; conditions: HEK293 cells expressing human ERG
hERG (KCNH2) [4] = molecular target: T2, hERG (KCNH2); assay: Inhibition of human ERG expressed in HEK293 cells at 0.01 uM after 5 mins at -80 mV holding potential by patch clamp assay; format: cell-based; conditions: HEK293 cells expressing human ERG
hERG (KCNH2) [5] = molecular target: T2, hERG (KCNH2); assay: Inhibition of human ERG expressed in HEK293 cells at 0.1 uM after 5 mins at -80 mV holding potential by patch clamp assay; format: cell-based; conditions: HEK293 cells expressing human ERG
Mus musculus [6] = species: Mus musculus; assay: Induction of cardiac function improvement in myocardial infarction-induced acute heart failure mouse model subjected to permanent ligation of left anterior descending coronary artery assessed as increase in fractional shortening at plasma concentration of 100 to 200 nM after 2 weeks post myocardial infarction by echocardiography; format: functional
Mus musculus [7] = species: Mus musculus; assay: Induction of cardiac function improvement in myocardial infarction-induced acute heart failure mouse model subjected to permanent ligation of left anterior descending coronary artery assessed as increase in cardiac contractility at plasma concentration 200 nM after 7 days post myocardial infarction; format: functional
Ryanodine receptor 2 [8] = molecular target: T1, Ryanodine receptor 2; assay: Induction of normalization of single channel closed state of wild type PKA phosphorylated RyR2 (unknown origin) assessed as channel open probability at 0.1 umol/L relative to control
Ryanodine receptor 2 [9] = molecular target: T1, Ryanodine receptor 2; assay: Induction of calstabin-2 binding to RyR2 P2328S mutant (unknown origin) at 0.1 umol/L
Mus musculus [10] = species: Mus musculus; assay: Antiarrhythmic activity in haploinsufficient FKBP12.6 expressing mouse assessed as reduction in sustained ventricular tachycardia at 0.2 to 1 uM under testing exercise followed by epinephrine injection relative to control; format: functional
Mus musculus [11] = assay: Antiarrhythmic activity in haploinsufficient FKBP12.6 expressing mouse assessed as plasma concentration showing prevention of cardiac arrhythmias dosed via osmotic mini-pump under testing exercise followed by epinephrine injection relative to control; format: functional, organism-based
Mus musculus [12] = assay: Antiarrhythmic activity in haploinsufficient FKBP12.6 expressing mouse assessed as plasma concentration showing prevention of sudden cardiac death dosed via osmotic mini-pump under testing exercise followed by epinephrine injection relative to control; format: functional, organism-based
Ryanodine receptor 2 [13] = molecular target: T1, Ryanodine receptor 2; assay: Induction of normalization of single channel closed state of PKA phosphorylated RyR2 P2328S mutant (unknown origin) assessed as channel open probability level at 0.1 umol/L (reference value: 14.4%)
Mus musculus [14] = species: Mus musculus; assay: Induction of cardiac function improvement in myocardial infarction-induced acute heart failure mouse model at plasma concentration 200 nM after 7 days post myocardial infarction; format: functional
Ryanodine receptor 2 [15] = molecular target: T1, Ryanodine receptor 2; assay: Induction of FKBP12.6 re-binding to PKA-phosphorylated-RyR2 (unknown origin) at 10 to 1000 nM after 30 mins in presence of [35S]-FKBP12.6 by liquid scintillation counting
[16] = Cardiotoxicity in haploinsufficient FKBP12.6 expressing mouse implanted with osmotic mini-pump assessed as reduction in resting heart rate in at 0.5 mg/kg/hr for 7 hrs; format: toxicity, organism-based; conditions: in vivo
[17] = molecular target: Ryanodine receptor 1 (Mus musculus) (UniProt E9PZQ0); assay: Inhibition of PKA-induced RyR1 phosphorylation in myocardial infarction-induced heart failure mouse soleus muscle at 0.5 mg/kg/day dosed via implantable osmotic minipumps; format: organism-based
[18] = Cardiotoxicity in FKBP12.6 deficient mouse implanted with osmotic mini-pump assessed as reduction in resting heart rate in at 0.5 mg/kg/hr for 7 hrs; format: toxicity, organism-based; conditions: in vivo
[19] = molecular target: Ryanodine receptor 1 (Mus musculus) (UniProt E9PZQ0); assay: Induction of normalization of RYR1 function in mdx dystrophin deficient mouse soleus muscle assessed as increase in average channel open dwell time at 1 uM; format: tissue-based
[20] = molecular target: Ryanodine receptor 1 (Mus musculus) (UniProt E9PZQ0); assay: Induction of normalization of RYR1 function in mdx dystrophin deficient mouse soleus muscle assessed as increase in channel open probability at 1 uM; format: tissue-based
[21] = molecular target: Ryanodine receptor 1 (Mus musculus) (UniProt E9PZQ0); assay: Induction of calstabin-2 binding to PKA-phosphorylated RyR1 in mouse skeletal muscle at >50 nM
Mus musculus [22] = assay: Improvement in soleus muscle fatigability in myocardial infarction-induced heart failure mouse model at 0.5 mg/kg/day relative to control; format: functional, organism-based
Mus musculus [23] = species: Mus musculus; assay: Reduction in RyR2 channel opening probability in haploinsufficient FKBP12.6+/- mouse in the presence of […]; format: functional
Mus musculus [24] = species: Mus musculus; assay: Antiarrhythmic activity in haploinsufficient FKBP12.6 expressing mouse assessed as reduction in sustained ventricular tachycardia at 1 uM under testing exercise followed by epinephrine injection relative to control; format: functional
[25] = Cardiotoxicity in haploinsufficient FKBP12.6 expressing mouse assessed as reduction in non-sustained ventricular tachycardia at 1 uM under testing exercise followed by epinephrine injection relative to control; format: toxicity; conditions: in vivo
Mus musculus [26] = assay: Reduction in PKA-phosphorylation of RyR2 in myocardial infarction-induced heart failure mouse model at 0.5 mg/kg/hr after 28 days post myocardial infarction; format: functional, organism-based
[27] = molecular target: Ryanodine receptor 1 (Mus musculus) (UniProt E9PZQ0); assay: Induction of calstabin-1 binding to RYR1 in myocardial infarction-induced heart failure wild type mouse soleus muscle at 0.5 mg/kg/day dosed via implantable osmotic minipumps; format: organism-based
[28] = molecular target: Ryanodine receptor 1 (Mus musculus) (UniProt E9PZQ0); assay: Induction of calstabin-1 binding to RYR1 in myocardial infarction-induced heart failure calsiabin2-/- mouse soleus muscle at 0.5 mg/kg/day dosed via implantable osmotic minipumps; format: organism-based
[29] = molecular target: Ryanodine receptor 1 (Mus musculus) (UniProt E9PZQ0); assay: Induction of calstabin-1 binding to PKA-phosphorylated RyR1 in mouse skeletal muscle at >50 nM
Mus musculus [30] = assay: Improvement in soleus muscle fatigability in myocardial infarction-induced heart failure calstabin2-deficient knockout mouse at 0.5 mg/kg/day relative to control; format: functional, organism-based
[31] = molecular target: Ryanodine receptor 1 (Mus musculus) (UniProt E9PZQ0); assay: Normalization of RYR1 in myocardial infarction-induced heart failure mouse soleus muscle assessed as increase in average channel open dwell time; format: tissue-based
[32] = molecular target: Ryanodine receptor 1 (Mus musculus) (UniProt E9PZQ0); assay: Induction of normalization of RYR1 function in mdx dystrophin deficient mouse soleus muscle assessed as decrease in average channel close dwell time at 1 uM; format: tissue-based
[33] = molecular target: Ryanodine receptor 1 (Mus musculus) (UniProt E9PZQ0); assay: Induction of calstabin-2 binding to RyR1 in mouse skeletal muscle at >50 nM
[34] = molecular target: Ryanodine receptor 1 (Mus musculus) (UniProt E9PZQ0); assay: Induction of calstabin-1 binding to RyR1 in mouse skeletal muscle at >50 nM
[35] = molecular target: Ryanodine receptor 1 (Mus musculus) (UniProt E9PZQ0); assay: Normalization of RYR1 in myocardial infarction-induced heart failure mouse soleus muscle assessed as decrease in average channel close dwell time; format: tissue-based

Ryanodine receptor 1 (Mus musculus), sequence (E9PZQ0 whole entry): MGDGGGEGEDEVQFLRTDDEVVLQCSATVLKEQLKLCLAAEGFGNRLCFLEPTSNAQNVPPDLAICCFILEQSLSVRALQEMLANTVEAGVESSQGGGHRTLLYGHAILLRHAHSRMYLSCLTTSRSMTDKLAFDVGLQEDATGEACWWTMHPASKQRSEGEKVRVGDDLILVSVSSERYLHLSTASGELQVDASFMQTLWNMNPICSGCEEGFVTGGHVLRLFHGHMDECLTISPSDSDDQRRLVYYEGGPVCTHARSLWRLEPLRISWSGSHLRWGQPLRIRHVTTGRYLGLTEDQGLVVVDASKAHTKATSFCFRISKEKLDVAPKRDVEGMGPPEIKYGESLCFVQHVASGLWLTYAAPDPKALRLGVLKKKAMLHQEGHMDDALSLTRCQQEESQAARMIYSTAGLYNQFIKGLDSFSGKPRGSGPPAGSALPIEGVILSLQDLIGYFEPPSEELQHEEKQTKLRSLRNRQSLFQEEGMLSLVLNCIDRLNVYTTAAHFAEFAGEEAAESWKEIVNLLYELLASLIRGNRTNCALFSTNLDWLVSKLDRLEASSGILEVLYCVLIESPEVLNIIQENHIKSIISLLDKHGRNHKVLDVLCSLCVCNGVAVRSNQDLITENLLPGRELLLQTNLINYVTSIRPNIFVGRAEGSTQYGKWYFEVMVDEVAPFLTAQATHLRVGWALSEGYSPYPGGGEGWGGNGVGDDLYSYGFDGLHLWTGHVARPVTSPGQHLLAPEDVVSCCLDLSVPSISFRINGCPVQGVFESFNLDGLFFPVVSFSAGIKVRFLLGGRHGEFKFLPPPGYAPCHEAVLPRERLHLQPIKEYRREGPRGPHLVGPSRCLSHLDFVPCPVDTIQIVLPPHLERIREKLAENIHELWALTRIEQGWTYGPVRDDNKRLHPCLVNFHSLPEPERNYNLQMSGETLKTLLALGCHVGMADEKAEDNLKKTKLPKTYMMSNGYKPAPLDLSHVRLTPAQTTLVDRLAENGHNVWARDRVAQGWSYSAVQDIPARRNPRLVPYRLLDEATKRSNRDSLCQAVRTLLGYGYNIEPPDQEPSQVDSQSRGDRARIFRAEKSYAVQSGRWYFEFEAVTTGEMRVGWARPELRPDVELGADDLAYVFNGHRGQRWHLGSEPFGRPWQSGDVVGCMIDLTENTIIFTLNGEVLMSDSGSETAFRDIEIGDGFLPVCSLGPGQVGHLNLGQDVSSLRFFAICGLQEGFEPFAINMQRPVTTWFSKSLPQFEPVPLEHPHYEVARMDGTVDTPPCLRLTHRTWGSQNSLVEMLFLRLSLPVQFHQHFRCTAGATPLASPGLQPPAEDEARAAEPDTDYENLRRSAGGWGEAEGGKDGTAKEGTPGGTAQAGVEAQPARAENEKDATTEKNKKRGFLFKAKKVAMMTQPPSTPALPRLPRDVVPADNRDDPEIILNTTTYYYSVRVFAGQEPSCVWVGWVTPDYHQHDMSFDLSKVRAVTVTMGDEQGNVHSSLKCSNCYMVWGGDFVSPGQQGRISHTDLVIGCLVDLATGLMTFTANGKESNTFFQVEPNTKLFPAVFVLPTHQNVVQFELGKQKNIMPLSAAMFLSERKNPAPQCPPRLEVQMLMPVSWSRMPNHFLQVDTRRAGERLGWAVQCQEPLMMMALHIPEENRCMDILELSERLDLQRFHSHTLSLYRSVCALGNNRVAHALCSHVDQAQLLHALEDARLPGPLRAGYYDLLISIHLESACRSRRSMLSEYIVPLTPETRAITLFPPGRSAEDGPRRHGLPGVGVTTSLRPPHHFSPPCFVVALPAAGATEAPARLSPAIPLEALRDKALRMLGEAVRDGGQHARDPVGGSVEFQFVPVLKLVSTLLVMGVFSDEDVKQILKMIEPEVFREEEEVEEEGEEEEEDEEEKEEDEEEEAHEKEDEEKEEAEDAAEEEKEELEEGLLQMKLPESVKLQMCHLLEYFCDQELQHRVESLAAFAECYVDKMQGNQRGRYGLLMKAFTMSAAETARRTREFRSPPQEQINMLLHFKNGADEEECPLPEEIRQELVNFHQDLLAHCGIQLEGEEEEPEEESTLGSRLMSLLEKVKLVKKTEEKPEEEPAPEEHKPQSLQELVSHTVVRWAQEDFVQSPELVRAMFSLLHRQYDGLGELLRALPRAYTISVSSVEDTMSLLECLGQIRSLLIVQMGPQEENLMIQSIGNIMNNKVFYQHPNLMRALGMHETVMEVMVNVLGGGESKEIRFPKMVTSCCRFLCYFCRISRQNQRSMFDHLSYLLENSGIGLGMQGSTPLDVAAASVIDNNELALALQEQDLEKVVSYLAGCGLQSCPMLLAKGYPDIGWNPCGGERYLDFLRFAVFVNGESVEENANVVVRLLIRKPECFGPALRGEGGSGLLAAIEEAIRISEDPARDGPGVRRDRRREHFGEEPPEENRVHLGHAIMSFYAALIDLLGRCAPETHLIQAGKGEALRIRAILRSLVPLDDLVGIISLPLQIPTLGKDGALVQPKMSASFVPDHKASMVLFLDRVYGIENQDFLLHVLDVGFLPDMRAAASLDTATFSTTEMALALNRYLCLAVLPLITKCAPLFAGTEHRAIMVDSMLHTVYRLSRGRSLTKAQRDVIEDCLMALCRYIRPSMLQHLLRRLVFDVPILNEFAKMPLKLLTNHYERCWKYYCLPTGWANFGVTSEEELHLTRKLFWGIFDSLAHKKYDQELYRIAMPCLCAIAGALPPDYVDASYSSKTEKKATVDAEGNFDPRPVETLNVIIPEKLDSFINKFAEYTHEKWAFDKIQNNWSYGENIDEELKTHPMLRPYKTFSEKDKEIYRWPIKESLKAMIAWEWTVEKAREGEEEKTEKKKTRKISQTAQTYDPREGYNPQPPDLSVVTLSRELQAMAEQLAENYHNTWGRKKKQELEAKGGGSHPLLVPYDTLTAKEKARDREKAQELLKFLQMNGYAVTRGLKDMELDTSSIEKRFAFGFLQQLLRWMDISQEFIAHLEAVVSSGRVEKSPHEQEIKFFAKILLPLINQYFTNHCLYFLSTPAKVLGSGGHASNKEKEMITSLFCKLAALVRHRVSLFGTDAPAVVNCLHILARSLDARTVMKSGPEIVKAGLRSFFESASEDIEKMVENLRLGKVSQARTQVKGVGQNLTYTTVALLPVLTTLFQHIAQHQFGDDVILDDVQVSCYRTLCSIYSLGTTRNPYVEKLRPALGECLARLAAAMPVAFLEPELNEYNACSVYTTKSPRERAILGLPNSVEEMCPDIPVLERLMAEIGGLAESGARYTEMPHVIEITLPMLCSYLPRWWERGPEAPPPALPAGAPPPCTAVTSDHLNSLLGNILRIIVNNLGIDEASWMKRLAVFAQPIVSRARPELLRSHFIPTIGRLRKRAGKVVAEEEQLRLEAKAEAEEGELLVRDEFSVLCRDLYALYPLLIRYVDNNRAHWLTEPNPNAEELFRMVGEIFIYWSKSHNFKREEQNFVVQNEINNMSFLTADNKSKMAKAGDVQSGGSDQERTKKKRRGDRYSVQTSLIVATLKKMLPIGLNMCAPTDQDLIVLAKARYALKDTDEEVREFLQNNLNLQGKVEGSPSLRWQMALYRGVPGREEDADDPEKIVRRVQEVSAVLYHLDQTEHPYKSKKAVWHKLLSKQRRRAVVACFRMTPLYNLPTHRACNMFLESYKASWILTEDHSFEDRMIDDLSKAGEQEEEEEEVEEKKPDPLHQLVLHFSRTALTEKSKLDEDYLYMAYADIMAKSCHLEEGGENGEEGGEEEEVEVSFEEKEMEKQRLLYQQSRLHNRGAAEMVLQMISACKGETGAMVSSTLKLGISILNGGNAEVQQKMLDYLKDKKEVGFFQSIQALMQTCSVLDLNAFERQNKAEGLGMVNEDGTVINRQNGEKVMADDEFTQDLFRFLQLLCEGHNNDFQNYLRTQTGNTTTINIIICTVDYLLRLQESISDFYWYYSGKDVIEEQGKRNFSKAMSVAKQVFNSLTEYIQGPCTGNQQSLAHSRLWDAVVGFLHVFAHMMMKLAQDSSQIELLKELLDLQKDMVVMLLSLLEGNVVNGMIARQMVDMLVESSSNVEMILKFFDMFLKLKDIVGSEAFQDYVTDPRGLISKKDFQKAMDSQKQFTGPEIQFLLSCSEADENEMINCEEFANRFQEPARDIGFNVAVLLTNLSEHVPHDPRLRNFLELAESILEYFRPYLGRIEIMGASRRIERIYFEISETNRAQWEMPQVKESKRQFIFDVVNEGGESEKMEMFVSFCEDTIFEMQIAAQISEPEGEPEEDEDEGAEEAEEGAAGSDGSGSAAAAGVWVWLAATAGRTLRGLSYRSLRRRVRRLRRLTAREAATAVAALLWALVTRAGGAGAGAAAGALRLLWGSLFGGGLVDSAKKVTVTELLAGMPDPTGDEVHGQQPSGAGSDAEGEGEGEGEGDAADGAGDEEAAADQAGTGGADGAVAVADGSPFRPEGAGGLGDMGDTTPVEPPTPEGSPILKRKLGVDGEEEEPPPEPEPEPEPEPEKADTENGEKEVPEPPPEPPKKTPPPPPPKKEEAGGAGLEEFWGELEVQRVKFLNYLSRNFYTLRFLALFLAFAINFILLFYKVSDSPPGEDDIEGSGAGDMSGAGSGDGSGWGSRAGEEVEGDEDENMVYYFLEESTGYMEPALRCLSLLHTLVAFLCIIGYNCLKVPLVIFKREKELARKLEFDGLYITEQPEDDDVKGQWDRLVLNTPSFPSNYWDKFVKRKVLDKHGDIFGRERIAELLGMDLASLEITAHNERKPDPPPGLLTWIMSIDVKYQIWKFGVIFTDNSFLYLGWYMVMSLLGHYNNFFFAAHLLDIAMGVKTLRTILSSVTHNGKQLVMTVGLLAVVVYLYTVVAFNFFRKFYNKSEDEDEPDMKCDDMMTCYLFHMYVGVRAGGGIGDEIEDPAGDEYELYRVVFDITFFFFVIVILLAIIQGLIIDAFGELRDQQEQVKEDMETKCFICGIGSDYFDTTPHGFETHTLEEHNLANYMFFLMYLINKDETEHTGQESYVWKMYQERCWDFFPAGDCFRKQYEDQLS

Compound: COc1ccc2c(c1)CN(S(=O)(=O)Nc1cccnc1)CCS2
- pEC50 (Ryanodine receptor 2 [1]): 7.11

Compound: COc1ccc2c(c1)CN(C(=O)N1CCCCC1)CCS2
- inhibition at 5 min, 1 µM (hERG (KCNH2) [2]): 6.1%
- inhibition at 5 min, 10 µM (hERG (KCNH2) [3]): 24.2%
- inhibition at 5 min, 0.01 µM (hERG (KCNH2) [4]): 1.8%
- inhibition at 5 min, 0.1 µM (hERG (KCNH2) [5]): 3.7%

Compound: COc1ccc2c(c1)CN(C(=O)C(=O)O)CCS2
- Activity (Mus musculus [6]): Active
- Activity (Mus musculus [7]): Active
- Activity (Ryanodine receptor 2 [8]): Active
- Activity (Ryanodine receptor 2 [9]): Active
- Activity (Mus musculus [10]): Active
- Cp (Mus musculus [11]): 0.02 to 1 µM
- Cp (Mus musculus [12]): 0.02 to 1 µM
- Activity (Ryanodine receptor 2 [13]): 0.3%
- Activity (Mus musculus [14]): Active
- Activity (Ryanodine receptor 2 [15]): Active

Compound: O=C(N1CCCCC1)N1CCSc2ccccc2C1
- inhibition at 5 min, 1 µM (hERG (KCNH2) [2]): 5.7%
- inhibition at 5 min, 10 µM (hERG (KCNH2) [3]): 47.3%
- inhibition at 5 min, 0.01 µM (hERG (KCNH2) [4]): 2.5%
- inhibition at 5 min, 0.1 µM (hERG (KCNH2) [5]): 4.2%

Compound: COC(=O)C(=O)N1CCSc2ccc(OC)cc2C1
- inhibition at 5 min, 1 µM (hERG (KCNH2) [2]): 2.7%
- inhibition at 5 min, 10 µM (hERG (KCNH2) [3]): 13.6%
- inhibition at 5 min, 0.01 µM (hERG (KCNH2) [4]): 0.2%
- inhibition at 5 min, 0.1 µM (hERG (KCNH2) [5]): 7.3%

Compound: COc1ccc2c(c1)CN(C(=O)N1CCN(Cc3ccc4c(c3)OCO4)CC1)CCS2
- inhibition at 5 min, 1 µM (hERG (KCNH2) [2]): 29.6%
- inhibition at 5 min, 10 µM (hERG (KCNH2) [3]): 78%
- inhibition at 5 min, 0.01 µM (hERG (KCNH2) [4]): 2.7%
- inhibition at 5 min, 0.1 µM (hERG (KCNH2) [5]): 9.7%

Compound: C=CC(=O)N1CCSc2ccc(OC)cc2C1
- pEC50 (Ryanodine receptor 2 [1]): 7.30

Compound: COc1ccc2c(c1)CN(C(=O)c1ccc(N=[N+]=[N-])cc1O)CCS2
- inhibition at 5 min, 1 µM (hERG (KCNH2) [2]): 4.1%
- inhibition at 5 min, 10 µM (hERG (KCNH2) [3]): 14%
- inhibition at 5 min, 0.01 µM (hERG (KCNH2) [4]): 1.3%
- inhibition at 5 min, 0.1 µM (hERG (KCNH2) [5]): 3.6%

Compound: O=C(O)C(=O)N1CCSc2ccccc2C1
- inhibition at 5 min, 1 µM (hERG (KCNH2) [2]): 3.6%
- inhibition at 5 min, 10 µM (hERG (KCNH2) [3]): 4.1%
- inhibition at 5 min, 0.01 µM (hERG (KCNH2) [4]): 1.3%
- inhibition at 5 min, 0.1 µM (hERG (KCNH2) [5]): 7.5%

Compound: COc1ccc2c(c1)CN(C(=O)CCN1CCC(Cc3ccccc3)CC1)CCS2.Cl
- Activity [16]: Non-Toxic
- inhibition [17]: Active
- Activity [18]: Non-Toxic
- TIME [19]: 4.44e-07 h
- Activity [20]: Active
- Activity [21]: Active
- Activity (Mus musculus [22]): Active
- Activity (Mus musculus [23]): Active
- Activity (Mus musculus [24]): Active
- Activity [25]: Non-Toxic
- Activity (Mus musculus [26]): Active
- Activity [27]: Active
- Activity [28]: Active
- Activity [29]: Active
- Activity (Mus musculus [30]): Active
- TIME [31]: 4.17e-07 to 5e-07 h
- Cp (Mus musculus [11]): 1 µM
- TIME [32]: 0.000287 h
- Cp (Mus musculus [12]): 1 µM
- Activity [33]: Active
- Activity [34]: Active
- TIME [35]: 0.000435 to 0.000441 h
